# Literature values in article PMC10011554, “BET inhibitor trotabresib in heavily pretreated patients with solid tumors and diffuse large B-cell lymphomas” (Nature Communications, 2023).
# pIC50: −log10 of the molar value. Read-outs that look alike come from different tables or passages of the source.
# Assays:
# [1] = set-up: method as in Amorim, 2016; conditions: ref Amorim, 2016; cited from earlier work
# [2] = system: relapsed or refractory lymphomas; conditions: cited from earlier work
# GBM3 GBM PDX = system: GBM3 GBM PDX; set-up: method as in Unpublished data from Celgene Corporation; conditions: GBM3, TMZ 50 mg/kg IP x 3 Q2 weeks alone, ref Unpublished data from Celgene Corporation; cited from earlier work
# [3] = cited from earlier work
# basal cell carcinoma = conditions: cited from earlier work
# WSU-DLCL2 (DOX-R) = system: WSU-DLCL2 (DOX-R); set-up: method as in Report CC-90010-Pharm-1018; conditions: Table 2, ref Report CC-90010-Pharm-1018, read-out: absolute IC50, proliferation; cited from earlier work
# SU-DHL-4 (DOX-R) = system: SU-DHL-4 (DOX-R); set-up: method as in Report CC-90010-Pharm-1018; conditions: Table 2, ref Report CC-90010-Pharm-1018, read-out: absolute IC50, proliferation; cited from earlier work
# U-2932 (ABC DLBCL) = system: U-2932 (ABC DLBCL); set-up: method as in Report CC-90010-Pharm-1018; conditions: U-2932, Table 2, ref Report CC-90010-Pharm-1018; read-out: absolute IC50, proliferation; cited from earlier work
# U-2932 (DOX-R) = system: U-2932 (DOX-R); set-up: method as in Report CC-90010-Pharm-1018; conditions: Table 2, ref Report CC-90010-Pharm-1018, read-out: absolute IC50, proliferation; cited from earlier work
# OCI-LY-10 (ABC DLBCL) = system: OCI-LY-10 (ABC DLBCL); set-up: method as in Report CC-90010-Pharm-1018; conditions: OCI-LY-10, Table 2, ref Report CC-90010-Pharm-1018; read-out: absolute IC50, proliferation; cited from earlier work
# OCI-LY-10 (DOX-R) = system: OCI-LY-10 (DOX-R); set-up: method as in Report CC-90010-Pharm-1018; conditions: Table 2, ref Report CC-90010-Pharm-1018, read-out: absolute IC50, proliferation; cited from earlier work
# WSU-DLCL2 (GCB DLBCL) = system: WSU-DLCL2 (GCB DLBCL); set-up: method as in Report CC-90010-Pharm-1018; conditions: WSU-DLCL2, Table 2, ref Report CC-90010-Pharm-1018; read-out: absolute IC50, proliferation; cited from earlier work
# SU-DHL-4 (GCB DLBCL) = system: SU-DHL-4 (GCB DLBCL); set-up: method as in Report CC-90010-Pharm-1018; conditions: SU-DHL-4, Table 2, ref Report CC-90010-Pharm-1018; read-out: absolute IC50, proliferation; cited from earlier work
# [4] = ref ODOMZO European Public Assessment Report
smiles,measurement,setting,value
Cc1sc2c(c1C)C(c1ccc(Cl)cc1)=N[C@@H](CC(=O)Nc1ccc(O)cc1)c1nnc(C)n1-2 [OTX-015],Grade 3-4 thrombocytopenia,[1],58%
same,median time to thrombocytopenia nadir (Grade 4) from starting treatment,[1],18 days
same,toxic effect anaemia,[1],91%
same,toxic effect diarrhea,[1],47%
same,toxic effect fatigue,[1],27%
same,toxic effect nausea,[1],24%
same,toxic effect neutropenia,[1],51%
same,toxic effect thrombocytopenia,[1],96%
Cc1sc2c(c1C)C(c1ccc(Cl)cc1)=N[C@@H](CC(=O)NCCCN1CCN(C)CC1)c1nnc(C)n1-2 [RG6146],ORR,"[2]; relapsed/refractory MYC-expressing DLBCL patients, ref Caimi, 2017",11%
"Cn1nnc2c(C(N)=O)ncn2c1=O [TMZ, temozolomide, reference compound]",TGI,GBM3 GBM PDX,3%
CS(=O)(=O)c1ccc(C(=O)Nc2ccc(Cl)c(-c3ccccn3)c2)c(Cl)c1 [vismodegib],subjects who withdrew from treatment due to adverse events,"[3]; at least 12 months follow up, ref Bassett-Seguin, 2015",36%
same,response rate,"basal cell carcinoma; locally advanced BCC, ref ERIVEDGE European Public Assessment Report",42.9%
same,independently reviewed response rate,"basal cell carcinoma; metastatic BCC, ref ERIVEDGE European Public Assessment Report",30.3%
same,median duration of response,basal cell carcinoma; ref ERIVEDGE European Public Assessment Report,7.6 months
Cc1noc2c1-c1ccccc1C(c1ccc(Cl)cc1)=N[C@H]2CC(N)=O [CPI-0610],objective responses,"[2]; out of 64 relapsed or refractory lymphomas, ref Blum, 2018",5 patients
Cc1c(C(=O)Nc2ccc(N3C[C@@H](C)O[C@@H](C)C3)nc2)cccc1-c1ccc(OC(F)(F)F)cc1 [sonidegib],subjects discontinued for adverse reactions,[3]; [4],28%
same,subjects with dose adjustments for adverse reactions,[3]; [4],32%
same,independently reviewed response rate,"basal cell carcinoma; locally advanced BCC, ref Migden, 2015a",58%
same,LaBCC with investigator-assessed responses lasting at least six months,"basal cell carcinoma; ref Migden, 2015a",39%
"COc1cccc2c1C(=O)c1c(O)c3c(c(O)c1C2=O)C[C@@](O)(C(=O)CO)C[C@@H]3O[C@H]1C[C@H](N)[C@H](O)[C@H](C)O1 [Doxorubicin, reference compound]",pIC50,WSU-DLCL2 (DOX-R),5.49
same,pIC50,SU-DHL-4 (DOX-R),5.45
same,pIC50,U-2932 (ABC DLBCL),7.70
same,pIC50,U-2932 (DOX-R),5.73
same,pIC50,OCI-LY-10 (ABC DLBCL),7.39
same,pIC50,OCI-LY-10 (DOX-R),5.44
same,pIC50,WSU-DLCL2 (GCB DLBCL),8.00
same,pIC50,SU-DHL-4 (GCB DLBCL),~8.00
